From patent US12162959B2, “Cyclic peptide for treating cancer” (Saint Leo University, priority 2018, dated 2024)
Where a SMILES comes first, the peptide text is derived from it.

How the values were obtained:
[1] = system: MRC-9 normal embryonic lung fibroblasts
Experimental: (§1) Cells were incubated post-transfection for a duration of two doubling periods and assessed for viability by using a cell proliferetion CCK-8 assay.
(§2) IC50 values were calculated form obtained equations that describe cell viability as a function of peptide concentration.

[2] = system: THLE-3 immortalized normal liver cells
Experimental: (§3) Hepatocellular carcinoma (Hep3B and Hep-G2) and immortalized normal liver (THLE-3) cells were transfected with 1.25 μM, 2.5 μM, 5.0 μM, or 20.0 μM of peptide 7N by using Pierce Protein Transfection reagent. Cells were incubated post-transfection for a duration of two doubling periods and assessed for viability by using a cell proliferetion CCK-8 assay.
as §2

[3] = system: Human recombinant CMG helicase; test: In vitro CMG helicase activity assay with Y-shaped oligonucleotide substrate; format: biochemical; settings: about 5 nM CMG helicase, 1.0, 2.0 or 5.0 nM peptide, 0.5 mM ATP, 37° C. 45 minutes; FIG. 1A/1B
Experimental: Human recombinant CMG helicase was co-incubated with Peptide 7N (amide cyclic of SEQ ID NO: 1) peptide in the 1-5 nM range and subjected to an in vitro activity assay with Y-shaped oligonucleotides as a substrate.
About 5 nM of CMG helicase was pre-incubated with 1.0, 2.0, or 5.0 nM of Peptide 7N peptide for 20 minutes on ice. In vitro helicase reactions containing partially annealed Y-shaped oligonucleotides as substrate were fired by the addition of 0.5 mM ATP as described previously (Kang Y H et al. PNAS, 2012, 109(16), p. 6042-6047). Reactions were incubated at 37° C. for 45 minutes, stopped with 4 μL of 6× stop solution, and separated by 10% PAGE. To visualize DNA bands, the gel was stained using SYBR Gold nucleic acid stain. Densities of single-stranded DNA bands were quantified by using Image Lab software, and normalized against control.

[4] = system: hTERT-HPNE immortalized normal pancreatic cells
Experimental: as §1, §2

[5] = system: SVG p12 immortalized normal astroglia cells
Experimental: as §1, §2

[6] = system: HMEC primary mammary epithelial cells
Experimental: (§4) Breast adenocarcinoma (MDA-MB468), ductal carcinoma (BT-549), and primary mammary epithelial (HMEC) cells were transfected with 1.25 μM, 2.5 μM, 5.0 μM, or 20.0 μM of peptide 7N by using Pierce Protein Transfection reagent. Cells were incubated post-transfection for a duration of two doubling periods and assessed for viability by using a cell proliferetion CCK-8 assay.
as §2

Experimental for BT-549 cells: as §4, §2
Experimental for H596 cells: as §1, §2
Experimental for HLF-a cells: as §1, §2
Experimental for Hep-G2 cells: as §3, §2
Experimental for Hep3B cells: as §3, §2
Experimental for Hs 766T cells: as §1, §2
Experimental for M059J cells: as §1, §2
Experimental for M059K cells: as §1, §2
Experimental for MDA-MB468 cells: as §4, §2
Experimental for NTERA-2 cells: Pierce Protein Transfection reagent (Thermo Scientific, 89850) was used to deliver peptide to the cultured cells. Transfected cells were allowed to go through two division cycles (48 hours) port-transfection, after which amounts of alive cells were determined by using a colorimetric CCK-8 assay (Dojindo Molecular Technologies, Inc.).
Human embryonal testicular carcinoma cells (NTERA-2 from ATCC #CRL-1973) were transfected with 1-10 μM Peptide 7N for 4.0 hours, incubated in a complete media for 48 hours, and assessed for viability by using a CCK-8 colorimetric assay.
as §2
Experimental for PANC-1 cells: as §1, §2
Experimental for SW480 cells: (§5) Colorectal adenocarcinoma cells (SW480 and SW620) were transfected with 1.25 μM, 2.5 μM, 5.0 μM, or 20.0 μM of peptide 7N by using Pierce Protein Transfection reagent. Cells were incubated post-transfection for a duration of two doubling periods and assessed for viability by using a cell proliferetion CCK-8 assay.
as §2
Experimental for SW620 cells: as §5, §2

## CSCC[C@@H]1NC(=O)[C@H](CCC(N)=O)NC(=O)[C@H](CC(C)C)NC(=O)[C@H](C(C)C)NC(=O)[C@H](CCC(=O)O)NC(=O)CNC(=O)[C@H](CCCCN)NC(=O)[C@H](C(C)C)NC(=O)[C@H](CC(C)C)NC(=O)[C@H](CC(=O)O)NC(=O)[C@H](CC(=O)O)NC(=O)[C@H](CCC(=O)O)NC1=O [Peptide 7N, Lys-Gly-Glu-Val-Leu-Gln-Met-Glu-Asp-Asp-Leu-Val] (cyclo(KGEVLQMEDDLV))
M059K cells
  IC50: 16.1 µM
M059K cells; M059K, 1.25-20.0 μM peptide, CCK-8, FIG. 6
  Proliferation of brain glioma cells (result in words): decreased proliferation
[1]
  IC50: 162 µM
[1]; MRC-9, 1.25-20.0 μM peptide, CCK-8, FIG. 3
  Effect on normal lung fibroblasts (result in words): sparing
Hep-G2 cells
  IC50: 16.7 µM
Hep-G2 cells; Hep-G2, 1.25-20.0 μM peptide, CCK-8, FIG. 4
  Proliferation of liver carcinoma cells (result in words): decreased proliferation
SW480 cells
  IC50: 21.8 µM
SW480 cells; SW480, 1.25-20.0 μM peptide, CCK-8, FIG. 8
  Proliferation of colorectal cancer cells (result in words): decreased proliferation
BT-549 cells
  IC50: 18.3 µM
BT-549 cells; BT-549, 1.25-20.0 μM peptide, CCK-8, FIG. 7
  Proliferation of breast cancer cells (result in words): decreases proliferation
[2]
  IC50: 722 µM
[2]; THLE-3, 1.25-20.0 μM peptide, CCK-8, FIG. 4
  Effect on immortalized normal liver cells (result in words): sparing
[3]
  Inhibition of CMG helicase (density of single-stranded DNA bands normalized against control): inhibited CMG helicase in a robust dose-dependent manner
Hep3B cells
  IC50: 14.1 µM
Hep3B cells; Hep3B, 1.25-20.0 μM peptide, CCK-8, FIG. 4
  Proliferation of liver carcinoma cells (result in words): decreased proliferation
NTERA-2 cells; 48 h
  IC50: 7 µM
NTERA-2 cells; transfected with 1-10 μM peptide for 4.0 hours, 48 hours in complete media, CCK-8, FIG. 2
  Proliferation/viability of NTERA-2 cells: effectively inhibited proliferation
PANC-1 cells
  IC50: 24.6 µM
PANC-1 cells; PANC-1, 1.25-20.0 μM peptide, CCK-8, FIG. 5
  Proliferation of pancreatic carcinoma cells (result in words): decreased proliferation
Hs 766T cells
  IC50: 18.1 µM
Hs 766T cells; Hs 766T, 1.25-20.0 μM peptide, CCK-8, FIG. 5
  Proliferation of pancreatic carcinoma cells (result in words): decreased proliferation
HLF-a cells
  IC50: 14.4 µM
HLF-a cells; HLF-a, 1.25-20.0 μM peptide, CCK-8, FIG. 3
  Proliferation of lung carcinoma cells (result in words): decreased proliferation
H596 cells
  IC50: 12.2 µM
H596 cells; H596, 1.25-20.0 μM peptide, CCK-8, FIG. 3
  Proliferation of lung carcinoma cells (result in words): decreased proliferation
SW620 cells
  IC50: 22 µM
SW620 cells; SW620, 1.25-20.0 μM peptide, CCK-8, FIG. 8
  Proliferation of colorectal cancer cells (result in words): decreased proliferation
M059J cells
  IC50: 15.4 µM
M059J cells; M059J, 1.25-20.0 μM peptide, CCK-8, FIG. 6
  Proliferation of brain glioma cells (result in words): decreased proliferation
[4]
  IC50: 1050 µM
[4]; hTERT-HPNE, 1.25-20.0 μM peptide, CCK-8, FIG. 5
  Effect on immortalized normal pancreatic cells (result in words): sparing
MDA-MB468 cells
  IC50: 17.1 µM
MDA-MB468 cells; MDA-MB468, 1.25-20.0 μM peptide, CCK-8, FIG. 7
  Proliferation of breast cancer cells (result in words): decreases proliferation
[5]
  IC50: 271 µM
[5]; SVG p12, 1.25-20.0 μM peptide, CCK-8, FIG. 6
  Effect on immortalized normal astroglia cells (result in words): sparing
[6]
  IC50: 134 µM
[6]; HMEC, 1.25-20.0 μM peptide, CCK-8, FIG. 7
  Effect on normal mammary epithelial cells (result in words): sparing
